The values below come from ChEMBL document CHEMBL1201862, “PubChem BioAssay data set” (2004).

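Five concentrations, 48 hours, 96-well plates. GI50 = concentration required for 50% inhibition of growth.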 Active and inactive are the calls of the source. Rule as the data show it: active = GI50 up to about 1.1 µM and inactive = higher.

Some test systems named below: SW-620; OVCAR-8; HCC 2998; HL-60; M14; NCI-H23; NCI/ADR-RES; Hs-578T; SF-295; T47D; A549; CCRF-CEM; OVCAR-5; HOP-92; MCF7; NCI-H522; U-251; SF-268; MDA-N; SK-OV-3.
What all share (test): growth of human tumour cells (NCI), 48 h

Take `COCCOC1=CC(=O)c2c(O)ccc(O)c2C1=O`: the GI50 was 0.569 µM (active) with SW-620; 1.73 µM (inactive) with OVCAR-8; 2.17 µM (inactive) with HCC 2998; 0.52 µM (active) in the assay with HL-60; 0.186 µM (active) in the assay with M14; 1.12 µM (active) in the assay on NCI-H23. Further, the GI50 in the assay on NCI/ADR-RES is 2.44 µM (inactive); in the assay on Hs-578T, 4.04 µM (inactive); in the assay with SF-295, 1.69 µM (inactive); with T47D it was 2.36 µM (inactive); in the assay with A549, 2 µM (inactive); in the assay with CCRF-CEM, 4.3 µM (inactive). Further, the GI50 is 1.61 µM (inactive) with OVCAR-5; 2.13 µM (inactive) with HOP-92; 0.275 µM (active) with MCF7; 2.29 µM (inactive) with NCI-H522; 1.92 µM (inactive) with U-251; 1.89 µM (inactive) with SF-268. In addition, the GI50 is 0.186 µM (active) in the assay with MDA-N and 8.41 µM (inactive) in the assay with SK-OV-3.

As for `O=C(c1cc2ccccc2[nH]1)N1C2CCC1CN(CCOC(c1ccc(F)cc1)c1ccc(F)cc1)CC2` (stereo not given), the GI50 in the assay on SW-620 was > 100 µM (inactive); with OVCAR-8 it was > 100 µM (inactive); in the assay on HCC 2998 it was > 100 µM (inactive); with HL-60, 6.85 µM (inactive); with M14, > 100 µM (inactive); with NCI-H23, 40.1 µM (inactive). The GI50 in the assay with NCI/ADR-RES was > 100 µM (inactive); in the assay with Hs-578T, > 100 µM (inactive); in the assay on SF-295 it was 9.89 µM (inactive); in the assay with T47D it was 5.28 µM (inactive); with A549, 34.9 µM (inactive); in the assay with CCRF-CEM it was 6.01 µM (inactive). Moreover, the GI50 in the assay with OVCAR-5 was > 100 µM (inactive); in the assay with HOP-92, > 100 µM (inactive); with MCF7 it was 7.06 µM (inactive); in the assay on NCI-H522, 18.1 µM (inactive); with U-251, 3.99 µM (inactive); in the assay with SF-268, 8.28 µM (inactive). Besides, the GI50 in the assay on MDA-N and with SK-OV-3 was > 100 µM (inactive) throughout.

For the compound `Cc1ccc([N+](=O)[O-])c2c(NCC(O)CO)ccnc12` (stereo not given), the GI50 is 49.2 µM (inactive) in the assay on SW-620; 47 µM (inactive) in the assay on OVCAR-8; 31.8 µM (inactive) in the assay on HCC 2998; 32.7 µM (inactive) with HL-60; 51.9 µM (inactive) with M14; 41.8 µM (inactive) in the assay with NCI-H23. In addition, the GI50 with NCI/ADR-RES is > 100 µM (inactive); in the assay with Hs-578T it was 7.71 µM (inactive); in the assay on SF-295, 42.1 µM (inactive); in the assay on T47D, 49.7 µM (inactive); with A549 it was 25.4 µM (inactive); in the assay on CCRF-CEM it was 83.9 µM (inactive). Besides, the GI50 is > 100 µM (inactive) in the assay on OVCAR-5; 34.8 µM (inactive) in the assay on HOP-92; 32.1 µM (inactive) in the assay on MCF7; > 10 µM (inactive) in the assay on NCI-H522; 93.8 µM (inactive) with U-251; 60.4 µM (inactive) in the assay with SF-268. Further, the GI50 in the assay with MDA-N was 42.3 µM (inactive); with SK-OV-3 it was > 100 µM (inactive).

As for `CC(=O)O[C@H]1CC[C@@]2(C)C(=CC[C@@H]3[C@@H]2CC[C@]2(C)C(=N/O)/C(=C\c4ccccc4)C[C@@H]32)C1`, the GI50 in the assay with SW-620 is 20.9 µM (inactive); in the assay with OVCAR-8 it was 9.71 µM (inactive); in the assay on HCC 2998, 11.9 µM (inactive); with HL-60, 14.5 µM (inactive); in the assay with M14 it was 4.9 µM (inactive); with NCI-H23, 16.3 µM (inactive). In addition, the GI50 was 7.08 µM (inactive) in the assay with NCI/ADR-RES; 22.5 µM (inactive) with Hs-578T; 14.8 µM (inactive) with SF-295; 7.53 µM (inactive) in the assay with T47D; 14.4 µM (inactive) in the assay on A549; 17.7 µM (inactive) in the assay on CCRF-CEM. The GI50 in the assay on OVCAR-5 was 17.1 µM (inactive); in the assay on HOP-92 it was 41.1 µM (inactive); with MCF7, 13 µM (inactive); with NCI-H522, 3.53 µM (inactive); in the assay on U-251, 24.9 µM (inactive); with SF-268, 24.2 µM (inactive). For the same compound, the figures for the GI50 in the assay with MDA-N and with SK-OV-3 were 4.71 µM (inactive) and 28.9 µM (inactive), respectively.

As to `O=C1CSC(c2ccc([N+](=O)[O-])cc2)N1c1ccc(-c2ccc(-n3c(-c4ccccc4)nc4ccccc4c3=O)cc2)cc1` (stereo not given), the GI50 in the assay with SW-620 is > 100 µM (inactive); in the assay on OVCAR-8, 46.9 µM (inactive); in the assay with HCC 2998, 35.7 µM (inactive); with HL-60, 26.5 µM (inactive); in the assay with M14, 59 µM (inactive); in the assay with NCI-H23 it was > 100 µM (inactive). The GI50 in the assay on NCI/ADR-RES was 43.9 µM (inactive); in the assay on Hs-578T, > 100 µM (inactive); in the assay with SF-295 it was 85.3 µM (inactive); with T47D, 21.5 µM (inactive); in the assay on A549 it was 57 µM (inactive); in the assay on CCRF-CEM, 25.7 µM (inactive). Moreover, the GI50 with OVCAR-5 was > 100 µM (inactive); with HOP-92, 41.7 µM (inactive); in the assay with MCF7, 33.1 µM (inactive); in the assay with NCI-H522, > 100 µM (inactive); with U-251, 83 µM (inactive); with SF-268, > 100 µM (inactive). Moreover, the GI50 is 75 µM (inactive) in the assay on MDA-N and > 100 µM (inactive) with SK-OV-3.

As for `C/C(=N/NC(=S)Nc1ccc(C)cc1)c1ccccn1`, the GI50 was < 0.0164 µM (active) with SW-620; 0.0258 µM (active) in the assay with OVCAR-8; 3.48 µM (inactive) in the assay on HCC 2998; < 0.0132 µM (active) in the assay on HL-60; 0.0446 µM (active) in the assay on M14; < 0.0185 µM (active) with NCI-H23. In addition, the GI50 in the assay with NCI/ADR-RES is < 0.0152 µM (active); in the assay on Hs-578T it was 0.859 µM (active); in the assay on SF-295 it was 0.193 µM (active); with T47D, 0.049 µM (active); in the assay on A549, 0.5 µM (active); in the assay on CCRF-CEM it was < 0.0124 µM (active). Also, the GI50 with OVCAR-5 is 0.0493 µM (active); with HOP-92, 0.719 µM (active); with MCF7, 0.0146 µM (active); in the assay on NCI-H522 it was 0.12 µM (active); in the assay with U-251, 0.125 µM (active); with SF-268, 0.114 µM (active). Moreover, the values for the GI50 in the assay with MDA-N and with SK-OV-3 were 1.1 µM (active) and 0.0363 µM (active), respectively.

Regarding `O=c1[nH]nc(-c2ccccc2)n1/N=C/c1ccc([N+](=O)[O-])cc1`, the GI50 is > 100 µM (inactive) with SW-620; 10.2 µM (inactive) in the assay on OVCAR-8; > 45.4 µM (inactive) in the assay on HCC 2998; > 100 µM (inactive) with HL-60; 96.2 µM (inactive) with M14; > 53.2 µM (inactive) with NCI-H23. The GI50 in the assay on NCI/ADR-RES was 20.1 µM (inactive); with Hs-578T, 17 µM (inactive); in the assay on SF-295, 27.2 µM (inactive); in the assay with T47D, 13.8 µM (inactive); in the assay on A549, 23.9 µM (inactive); in the assay with CCRF-CEM, > 100 µM (inactive). Moreover, the GI50 is > 100 µM (inactive) in the assay on OVCAR-5; 10 µM (inactive) in the assay on HOP-92; > 60.1 µM (inactive) with MCF7; > 100 µM (inactive) in the assay with NCI-H522; 4.74 µM (inactive) in the assay on U-251; 13 µM (inactive) with SF-268. In addition, the GI50 in the assay with MDA-N is > 100 µM (inactive); in the assay on SK-OV-3, 2.94 µM (inactive).

Regarding `O=S(=O)(Nc1nc2ccccc2nc1N1CCCCCC1)c1ccccc1`, the GI50 in the assay on SW-620 is 22.7 µM (inactive); in the assay on OVCAR-8 it was 29 µM (inactive); in the assay on HCC 2998 it was 11.8 µM (inactive); in the assay with HL-60, 23.2 µM (inactive); with M14 it was 22.5 µM (inactive); in the assay on NCI-H23, 19.1 µM (inactive). For the same compound, the GI50 is 25.8 µM (inactive) with NCI/ADR-RES; 17.5 µM (inactive) in the assay on Hs-578T; 24.1 µM (inactive) in the assay with SF-295; > 100 µM (inactive) in the assay on T47D; 24.7 µM (inactive) in the assay with A549; 34.5 µM (inactive) in the assay with CCRF-CEM. The GI50 with OVCAR-5 was 57.3 µM (inactive); in the assay with HOP-92 it was 7.8 µM (inactive); with MCF7, 28.6 µM (inactive); in the assay with NCI-H522, 19.1 µM (inactive); in the assay with U-251, 18.6 µM (inactive); in the assay with SF-268, 37.7 µM (inactive). The GI50 is > 100 µM (inactive) in the assay with MDA-N and 28.2 µM (inactive) in the assay with SK-OV-3.

On to `CC(=O)CC1(O)C(=O)c2c(Br)sc(Br)c2C1=O`, for which the GI50 was 25.1 µM (inactive) with SW-620; 23 µM (inactive) in the assay with OVCAR-8; 17.8 µM (inactive) with HCC 2998; 20.6 µM (inactive) in the assay on HL-60; 17.8 µM (inactive) with M14; 19.5 µM (inactive) with NCI-H23. Also, the GI50 with NCI/ADR-RES was 36.5 µM (inactive); in the assay on Hs-578T, 31.3 µM (inactive); with SF-295 it was > 100 µM (inactive); in the assay with T47D, 30.9 µM (inactive); in the assay on A549, 58.1 µM (inactive); in the assay on CCRF-CEM, 15.1 µM (inactive). In addition, the GI50 with OVCAR-5 is 17.6 µM (inactive); in the assay on HOP-92, 18.8 µM (inactive); with MCF7, 30.1 µM (inactive); in the assay on NCI-H522, 18.4 µM (inactive); in the assay on U-251, 24 µM (inactive); in the assay on SF-268, 30.2 µM (inactive). Moreover, the GI50 is 22.3 µM (inactive) in the assay on MDA-N and 36.8 µM (inactive) with SK-OV-3.

`C/C(=C\[C@H]1C[C@@H]([C@@H]2CC[C@]34C[C@]23C=C[C@@H]2[C@@]3(C)CC=C5C[C@@H](c6ccccc6)OC[C@]5(C)[C@@H]3C[C@@H](O)[C@]24C)C(=O)O1)CO` [DICHAPETALIN A]: the GI50 with SW-620 is 2.72 µM (inactive); in the assay on OVCAR-8, 4.91 µM (inactive); in the assay with HCC 2998, 6 µM (inactive); in the assay on HL-60, 1.2 µM (inactive); in the assay on M14 it was 2.77 µM (inactive); with NCI-H23, 1.19 µM (inactive). In addition, the GI50 in the assay on NCI/ADR-RES is 3.08 µM (inactive); in the assay on Hs-578T it was 10.9 µM (inactive); with SF-295, 1.34 µM (inactive); with T47D it was 2.84 µM (inactive); with A549 it was 2.79 µM (inactive); in the assay on CCRF-CEM, 1.04 µM (active). For the same compound, the GI50 was 9.82 µM (inactive) in the assay on OVCAR-5; 1.95 µM (inactive) in the assay with HOP-92; 1.78 µM (inactive) in the assay on MCF7; 2.88 µM (inactive) in the assay on NCI-H522; 1.04 µM (active) with U-251; 6.75 µM (inactive) in the assay on SF-268. Moreover, the GI50 in the assay on MDA-N was 1.71 µM (inactive); with SK-OV-3, > 36.8 µM (inactive).
